Laboratory results reported in publication PMC11645656, “MRGPRX4 mediates phospho-drug associated pruritus in a humanized mouse model” (Science translational medicine, 2024).
Values joined by “and” are separate entries in the source; they are usually repeats but may differ in a detail not shown here. Equal values may be shown once. Read-outs that look alike come from different tables or passages of the source.

Tests used:
MRGPRX4 Y250A = molecular target: T1, MRGPRX4 Y250A (Homo sapiens, UniProt Q96LA9, L83S/Y250A); assay: Calcium mobilization assay (FLIPR), MRGPRX4 Y250A mutant; assay type: cell-based
T1 construct: expressed in transfected cells; host or cells: HEK293T, transient
Source text: (§1) Fig. 3. […] (A) Cryo-EM density map of MRGPRX4-Gq in complex with fospropofol. (B) The density map of fospropofol and R82 of MRGPRX4. (C and D) Key molecular interactions between fospropofol and the hydrophilic (C) and hydrophobic (D) part of the agonist binding pocket of MRGPRX4. Amino acid residues interacting with fospropofol are shown as sticks. Hydrogen bond is shown as cyan dashed lines. […] Data are from at least three independent experiments, each performed in triplicate, and reported as the mean ± SEM. (E) and (F) were collected from the same sets of experiments.
(§2) To generate murine Mrgprs expressing cells, HEK293T cells (ATCC) were seeded on poly-D-lysine coated 96 well plate at 25,000 cells per well one day prior to transfection. HEK293T cells were transiently co-transfected with the mammalian expression plasmids carrying cDNA encoding the murine Mrgpr genes and plasmid inserted with cDNA encoding murine α-subunit of the heterotrimeric G15 protein (Gα15) in triplicates using Lipofectamine LTX reagents (Thermo Scientific). To generate WT, S83L, and alanine mutant MRGPRX4-expressing cells, HEK293T cells were seeded on poly-D-lysine coated 384 well plate at 12,000 cells per well one day prior to transfection. […]

MRGPRX4 R95A = molecular target: T2, MRGPRX4 R95A (Homo sapiens, UniProt Q96LA9, L83S/R95A); assay: Calcium mobilization assay (FLIPR), MRGPRX4 R95A mutant; assay type: cell-based
T2 construct: expressed in transfected cells; host or cells: HEK293T, transient
Source text: as §1, §2

MRGPRX4 W158A = molecular target: T3, MRGPRX4 W158A (Homo sapiens, UniProt Q96LA9, L83S/W158A); assay: Calcium mobilization assay (FLIPR), MRGPRX4 W158A mutant; assay type: cell-based; conditions: for calcium mobilization response (Fig. 3E and 3F dose-response): W158A
T3 construct: expressed in transfected cells; host or cells: HEK293T, transient
Source text: as §1
(§3) To generate murine Mrgprs expressing cells, HEK293T cells (ATCC) were seeded on poly-D-lysine coated 96 well plate at 25,000 cells per well one day prior to transfection. HEK293T cells were transiently co-transfected with the mammalian expression plasmids carrying cDNA encoding the murine Mrgpr genes and plasmid inserted with cDNA encoding murine α-subunit of the heterotrimeric G15 protein (Gα15) in triplicates using Lipofectamine LTX reagents (Thermo Scientific). To generate WT, S83L, and alanine mutant MRGPRX4-expressing cells, HEK293T cells were seeded on poly-D-lysine coated 384 well plate at 12,000 cells per well one day prior to transfection. Mammalian expression plasmids pLX304 (vector from Addgene) carrying different MRGPRX4 coding sequences were transiently transfected into HEK293T cells in triplicates with Lipofectamine LTX reagents (Thermo Scientific). Intracellular calcium mobilization assays were performed after one day of transfection. Murine Mrgprs tested include Mrgpra1, Mrgpra2a, Mrgpra2b, Mrgpra3, Mrgpra4, Mrgpra6, Mrgpra9, Mrgpra10, Mrgpra11, Mrgpra12, Mrgpra14, Mrgprb5, Mrgprb6, Mrgprb10, Mrgprb11, and Mrgprc11. WT and mutant MRGPRX4 constructs tested include WT, S83L, R82A, R86A, R95A, W158A, Y250A, and Y254A.
(§4) To generate MRGPRX4 mutant constructs, site-directed mutagenesis was performed using Q5® Site-Directed Mutagenesis Kit (New England Biolabs). The primers were designed by the NEBaseChanger tool, with forward primers spanning designated mutated sequence corresponding to the desired amino acid substitutions. The plasmids with WT MRGPRX4 sequence served as the templates for polymerase chain reaction (PCR) amplification with Q5 high-fidelity polymerase and respective primer pairs according to the manufacturer’s conditions. Then, the linear PCR products underwent phosphorylation, ligation, and simultaneous degradation of template DNA by incubating them with a KLD enzyme mix consisting of T4 polynucleotide kinase, T4 DNA ligase, and DpnI at room temperature for 5 min. Subsequently, the mutated circular plasmids were transformed into NEB 5-alpha competent E. coli by heat-shock method, and the successfully transformed bacteria were selected on LB plates with selection antibiotics. The next day, the transformant colonies were picked, expanded in LB broth containing selection antibiotics overnight. Plasmids were isolated using QIAprep Spin Miniprep Kit (Qiagen) and subjected to sequencing to confirm the mutation.

MRGPRX4 Y254A = molecular target: T4, MRGPRX4 Y254A (Homo sapiens, UniProt Q96LA9, L83S/Y254A); assay: Calcium mobilization assay (FLIPR), MRGPRX4 Y254A mutant; assay type: cell-based; conditions: for Calcium mobilization response, dose-response replicate data (Fig. 3E and 3F): Y254A
T4 construct: expressed in transfected cells; host or cells: HEK293T, transient
Source text: as §1, §3, §4

NP2-X4+ DRG neurons = assay: GCaMP6s calcium imaging of cultured NP2-X4+ DRG neurons; assay type: cell-based, mouse; conditions: 10 μM phospho-drugs; 1 mM CQ
Source text: Fig. 2. Phosphate monoester prodrugs induce itch in NP2-MRGPRX4+ mice through activating NP2 primary sensory neurons. (A) Mating strategy to generate NP2-X4+ mice. (B) In situ hybridization showing MRGPRX4 transcripts (magenta) in NP2-X4+ DRG as indicated by arrowheads (left) but not in littermate control NP2-WT (right). NP2 subpopulation accounts for 5% of total DRG neurons. DAPI, blue. Scale bar, 50 μm. […]. Data are expressed as mean ± SEM. *p< 0.05, **p< 0.01 and ***p< 0.001 by two-tailed unpaired Student’s t-test. ns = no statistical significance observed. (D and E) Traces of average (top, depicted as mean ± 95% confidence interval) and individual (bottom, reflected by the heatmap) calcium activity, measured by fluorescence intensity normalized to the baseline intensity (FT/F0) over time of NP2-X4+ (D) and NP2-WT (E) DRG neurons labelled with GCaMP6s (n = 110–150 neurons pooled from 3–7 independent culture vessels from 2–4 mice in each condition). 10 μM phospho-drugs and 1 mM CQ were added as indicated by the arrowheads. Neurons with FT/F0 > 1.5 after compound application were considered a positive responder. NP2-X4+: NP2-MRGPRX4+; DRG, dorsal root ganglia; CQ: chloroquine.
The procedures were performed following previously established protocols ([15]). Murine DRGs (from both male and female) were harvested from all spinal segments and digested in dispase (5 mg/ml) / type I collagenase (1 mg/ml) enzyme mix at 37 °C for an hour. Enzyme mix was replaced with complete DH10 media (90% DMEM/F12, 10% FBS, penicillin (100 units/ml), and streptomycin (100 μg/ml)) and gently triturated with 1 ml pipette tip until the media turned cloudy without visible tissue chunks. Dissociated tissues were filtered through a 70 μm filter and spun down 1250 rpm for 5 min at RT. Supernatant was removed and the cell pellet was resuspended in complete DH10 media. Cell suspension was then added on top of poly-D-lysine- and laminin-coated coverslips and sat for 1–2 h at 37°C. Complete DH10 media supplemented with NGF (50 ng/ml) was then added into the vessel. Neurons were allowed to recover overnight at 37°C for the next-day calcium imaging experiment.
Calcium imaging data was collected with a Nikon Eclipse TE 200 microscope. Time series GCaMP6 fluorescence intensity was acquired through the FITC/GFP channel. Before the imaging, cultured neurons were washed and equilibrated in CIB for 30 min at 37°C. In each trial, compounds (as indicated in the results) were added into the imaging chamber after a 30 s baseline GCaMP6 activity was collected. […] Neurons with GCaMP6 signal rose above 50% of the baseline intensity after compound application were counted as positive responders and the percentage of responding neurons was calculated. […]

[1] = cited from earlier work

T4 sequence (Q96LA9 whole entry L83S/Y254A): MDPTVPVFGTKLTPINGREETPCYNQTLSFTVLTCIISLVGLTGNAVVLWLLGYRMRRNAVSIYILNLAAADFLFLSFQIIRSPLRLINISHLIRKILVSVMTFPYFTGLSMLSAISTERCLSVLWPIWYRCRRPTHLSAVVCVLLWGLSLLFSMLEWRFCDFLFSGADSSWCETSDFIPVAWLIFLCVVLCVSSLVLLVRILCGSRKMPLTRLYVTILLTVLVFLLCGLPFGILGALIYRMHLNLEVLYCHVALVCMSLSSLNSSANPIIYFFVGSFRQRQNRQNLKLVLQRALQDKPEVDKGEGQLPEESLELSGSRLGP
T3 sequence (Q96LA9 whole entry L83S/W158A): as the sequence (Q96LA9 whole entry L83S/Y254A) above, with W158A, A254Y counted along it
T1 sequence (Q96LA9 whole entry L83S/Y250A): as the sequence (Q96LA9 whole entry L83S/Y254A) above, with Y250A, A254Y counted along it
T2 sequence (Q96LA9 whole entry L83S/R95A): as the sequence (Q96LA9 whole entry L83S/Y254A) above, with R95A, A254Y counted along it

For `O=C1NC(c2ccccc2)(c2ccccc2)C(=O)N1COP(=O)(O)O` [Fosphenytoin], the “Calcium mobilization response at alanine mutant Y250A vs WT” value (MRGPRX4 Y250A) was “disrupted calcium mobilization”, the “Calcium mobilization response at alanine mutant R95A vs WT” value (MRGPRX4 R95A) was “either greatly attenuated or abolished” and the “Calcium mobilization response at alanine mutant W158A vs WT” value (MRGPRX4 W158A) was “disrupted calcium mobilization”. For the same compound, the “calcium mobilization response (Fig. 3E and 3F dose-response)” value (MRGPRX4 W158A; 0.000333 M) was -15.9549, the “calcium mobilization response (Fig. 3E and 3F dose-response)” value (MRGPRX4 W158A; 0.001 M) was -17.9356 and the “calcium mobilization response (Fig. 3E and 3F dose-response)” value (MRGPRX4 W158A; […]) was -11.6633. The “Calcium mobilization response at alanine mutant Y254A vs WT” value (MRGPRX4 Y254A) was “disrupted calcium mobilization”, the “Calcium mobilization response, dose-response replicate data (Fig. 3E and 3F)” value (from here on “Calcium mobilization response … (Fig. 3E and 3F)”) (MRGPRX4 Y254A; concentration 188 pM) was 6.602 and -1.3205 and -9.574 and 20.2858 and 13.0936 and 9.774 and -0.7431 and 13.747 and the “Calcium mobilization response … (Fig. 3E and 3F)” value (MRGPRX4 Y254A; concentration 565 pM) was 20.4677 and 20.7978 and 5.942 and 10.3273 and 0.3688 and 21.3924 and 9.2885 and 13.5241. For the same compound, the “Calcium mobilization response … (Fig. 3E and 3F)” value (MRGPRX4 Y254A; concentration 1.69e-9 M) was 15.8459 and 12.5447 and -5.6121 and 28.0313 and 20.8391 and 13.6468 and 20.2118 and 18.4284, the “Calcium mobilization response … (Fig. 3E and 3F)” value (MRGPRX4 Y254A; concentration 5.08e-9 M) was 23.7689 and 10.8941 and -0.3301 and 18.6261 and 10.3273 and 20.8391 and 13.5241 and 11.5177 and the “Calcium mobilization response … (Fig. 3E and 3F)” value (MRGPRX4 Y254A; concentration 1.52e-8 M) was 15.8459 and 17.8267 and 10.564 and 26.3716 and 23.6054 and 16.9663 and 20.8805 and 19.7659. For the same compound, the “Calcium mobilization response … (Fig. 3E and 3F)” value (MRGPRX4 Y254A; concentration 4.57e-8 M) was 19.1472 and 14.8556 and 8.913 and 19.1793 and 12.5403 and 20.2858 and 17.7596, the “Calcium mobilization response … (Fig. 3E and 3F)” value (MRGPRX4 Y254A; concentration 1.37e-7 M) was 18.8171 and 31.3618 and 9.243 and 27.4781 and 26.9248 and 21.3924 and 19.3201 and the “Calcium mobilization response … (Fig. 3E and 3F)” value (MRGPRX4 Y254A; concentration 4.12e-7 M) was 18.4869 and 19.4773 and 3.301 and 26.9248 and 12.5403 and 32.4573 and 12.4094. For the same compound, the “Calcium mobilization response … (Fig. 3E and 3F)” value (MRGPRX4 Y254A; concentration 1.23e-6 M) was 21.1279 and 18.1568 and 6.272 and 32.4573 and 21.9456 and 23.0521 and 14.8616 and 16.645, the “Calcium mobilization response … (Fig. 3E and 3F)” value (MRGPRX4 Y254A; concentration 3.7e-6 M) was 15.5158 and 10.2338 and 7.923 and 31.3509 and 13.0936 and 21.9456 and 13.9699 and 13.3011 and the “Calcium mobilization response … (Fig. 3E and 3F)” value (MRGPRX4 Y254A; concentration 1.11e-5 M) was 7.923 and -1.651 and 1.651 and 24.1586 and 18.0728 and 21.9456 and 2.8237 and 17.9825. For the same compound, the “Calcium mobilization response … (Fig. 3E and 3F)” value (MRGPRX4 Y254A; concentration 3.33e-5 M) was 5.942 and 0.9904 and -9.904 and 16.4131 and 10.3273 and 31.3509 and 7.059 and 4.161, the “Calcium mobilization response … (Fig. 3E and 3F)” value (MRGPRX4 Y254A; concentration 0.0001 M) was 1.651 and -5.282 and 12.5403 and 18.0728 and 14.2001 and 2.601 and 7.951 and the “Calcium response of NP2-X4+ neurons” value (NP2-X4+ DRG neurons) was “strong calcium transients”. For the same compound, the “Solubility relative to parent drug” value ([1]; vs phenytoin) was 4500 fold.

With `CC(C)c1cccc(C(C)C)c1OCOP(=O)(O)O` [Fospropofol] the “Calcium mobilization response at alanine mutant Y250A vs WT” value (MRGPRX4 Y250A) was “disrupted calcium mobilization”, the “Calcium mobilization response at alanine mutant R95A vs WT” value (MRGPRX4 R95A) was “either greatly attenuated or abolished” and the “Calcium mobilization response at alanine mutant W158A vs WT” value (MRGPRX4 W158A) was “disrupted calcium mobilization”. For the same compound, the “Calcium mobilization response at alanine mutant Y254A vs WT” value (MRGPRX4 Y254A) was “disrupted calcium mobilization”, the “Calcium response of NP2-X4+ neurons” value (NP2-X4+ DRG neurons) was “strong calcium transients” and the “Solubility relative to parent drug” value ([1]; vs propofol) was 3000 fold.
